Data: ChEMBL document CHEMBL1156429 (J Biol Chem, 2007)
Structures can show the parent of a compound that is named as a salt. Active and inactive are the calls of the source. The rule behind the calls is not given here.

Legend:
[1] = tested on: Polycythemia vera; assay: Growth inhibition of JAK2 V617F mutant deficient human polycythemia vera hematopoietic progenitor cells at 5 uM by erythroid burst-forming unit assay; format: functional, cell-based
[2] = Growth inhibition of JAK2 V617F mutant expressing human erythroleukemia cells after 24 hrs; format: functional, cell-based; conditions: Leukemia cell
[3] = Growth inhibition of mouse erythroleukemia cells after 24 hrs; format: functional, cell-based; conditions: Leukemia cell
[4] = tested on: Polycythemia vera; assay: Growth inhibition of JAK2 V617F mutant expressing human polycythemia vera hematopoietic progenitor cells at 5 uM by erythroid burst-forming unit assay; format: functional, cell-based
[5] = species: Homo sapiens; assay: Growth inhibition of normal human hematopoietic progenitor cells by colony forming assay; format: functional
[6] = tested on: Jurkat; assay: Growth inhibition of human Jurkat cells after 24 hrs; format: functional, cell-based
[7] = Growth inhibition of JAK2 V617F mutant expressing hematopoietic progenitor cells isolated from polycythemia vera patient by colony forming assay; format: functional, cell-based; conditions: Homo sapiens
[8] = Inhibition of formation of erythroid burst-forming units in human polycythemia vera cells at 1 uM; conditions: read-out: INH

IC50 [6] [µM] | Compound | Activity [1] | IC50 [2] [µM] | IC50 [3] [µM] | Activity [4] | Activity [5] | IC50 [7] [µM] | inhibition at 1 µM [8] [%]
2 | C#Cc1cccc(Nc2ncnc3cc(OCCOC)c(OCCOC)cc23)c1 [ERLOTINIB] | inactive | 2 | 2 | Active | inactive | 5 | 
 | Cc1ccc(NC(=O)c2ccc(CN3CCN(C)CC3)cc2)cc1Nc1nccc(-c2cccnc2)n1 [IMATINIB MESYLATE] |  |  |  |  |  |  | 73
